Legend:
Assay type in all cases: cell-based, human
[1] = tested on: HepG2 cancer cell line; test: Cell viability assay (MTT), antiproliferative screening; details: FIGS. 1A-1C
Method: Cells (HepG2) were provided from the American Type Culture Collection (ATCC) unless otherwise stated. Cells were grown in ATCC-formulated specific DMEM/F12 medium for each cell line with supplements of 5% fetal bovine serum, 10 U/ml penicillin, 10 μg/ml streptomycin, and 4% glutamine. All cell lines were placed in a humidified incubator a 37° C. in an atmosphere of 5% CO2 and 95% air. Cells were cultured into two groups. One as control cells and the other as cell lines treated for one day (3-prenyl 5-methyl ether, 7-O-rhamnoside-treated cells).
The cell viability will be tested using MTT. […] The culture supernatant was removed, the remaining MTT formazan crystals was dissolved in 400 μL of DMSO, and the absorbance was measured at 570 nm using an ELISA micro-plate reader (Bio-Tek Instruments, Winooski, VT, USA). The effect of 3-prenyl 5-methyl ether, 7-O-rhamnoside on cell viability was assessed as the percentage of viable cells compared with the vehicle-treated control cells, which were arbitrarily designated as 100%.
The cells were treated with increasing concentrations of 3-prenyl 5-methyl ether, 7-O-rhamnoside, (0-5, 10, 15, 20 and 25 μmol/mL for 24,48 and 72 h. The viability was assessed using the MTT assay. Values are mean±SD of three independent experiments. (p<0.01 compared untreated cells).

[2] = tested on: HepG2 cells; test: Migration assay (wound closure); details: non-cytotoxic concentrations, 24 hours, FIGS. 2A-2B
Method: (§1) During the metastatic cascade of carcinomas, tumor migration and invasion is the first and most important steps. It involves profound changes in cell adhesion, allowing tumour cells to dissociate and migrate from the primary site. […] Several essential steps of metastasis, including migration (FIGS. 2A-2B) invasion (FIG. 3A-3B) of human liver cancer cells, are inhibited by the 3-prenyl 5-methyl ether, 7-O-rhamnoside.
(§2) The migration and invasion assays were conducted by photographing the cells that migrated the membrane (200× magnification). As illustrated in FIGS. 2A-2B HepG2 cells were treated with 3-prenyl 5-methyl ether, 7-O-rhamnoside at indicated doses for 24 hours. The percentage inhibition of migrating cells was quantified and expressed based on untreated cells (control) represented 100%. The migration was determined by the areas of the wound closure calculated from three microscopic fields per sample.

[3] = tested on: HepG2 cells; test: Invasion assay; details: non-cytotoxic concentrations, FIGS. 3A-3B
Method: as §1, §2
As illustrated in FIGS. 3A-3B, invasiveness was determined by counting cells in three microscopic fields per sample. The inhibitory percentage of invading cells was quantified and expressed with untreated cells (control) representing 100%. Values are mean±SD of three independent experiments. (p<0.01 compared untreated cells).

With `COc1cc(OC2OC(C)C(O)C(O)C2O)cc2oc(-c3ccc(O)cc3)c(CC=C(C)C)c(=O)c12` (stereo not shown) [3-prenyl 5-methyl ether, 7-O-rhamnoside, apigenin 3-prenyl 5-methyl ether, 7-O-rhamnoside] the “cytotoxicity for the HepG2 cancer cell line (cell viability, MTT)” value ([1]; 0, 5, 10, 15, 20 and 25 μmol, 24, 48 and 72 hrs) was “potentially cytotoxic”, the “dose-dependent potentiation / enhancement of anti-proliferative effects” value ([1]; seen at both 15 and 20 μmol) was “Potentiation” and the “migration of human liver cancer cells” value [2] was “inhibited”. The “invasion of human liver cancer cells” value [3] was “inhibited”.
